Results reported in patent US8574563B2 (Bristol-Myers Squibb Company, priority 2006, dated 2013).

Test system: HCV 1b-377-neo replicon cells
Assay: HCV replicon assay, HCV 1b-377-neo replicon cells (1b FRET)
Assay type: cell-based, Hepatitis C virus genotype 1b
Conditions: Hepatitis C virus, HCV 1b-377-neo replicon cells; HCV 1b genotype; read-out: EC50 range against HCV 1b (Table 2, Range)
Outline: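 Compounds were tested in genotype 1b subgenomic replicon cells carrying a neomycin marker, alongside a matched replicon line with an NS5A Y2065H substitution that confers resistance to a reference NS5A inhibitor.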

Row | SMILES | EC50 [nM]
1 | O=C(Cc1ccccc1F)N1CCC[C@H]1c1ncc(-c2ccc(-c3ccc(-c4cnc([C@@H]5CCCN5C(=O)[C@@H](c5ccccc5)N5CCCCC5)[nH]4)cc3)cc2)[nH]1 [Example 107-28] | 0.001 to 0.999
2 | CC(=O)N1CCC[C@H]1c1ncc(-c2ccc(-c3ccc(-c4cnc([C@@H]5CCCN5C(=O)[C@@H](c5ccccc5)N5CCCCC5)[nH]4)cc3)cc2)[nH]1 [Example 107-29, 1-1((1R)-2-((2S)-2-(5-(4′-(2-((2S)-1-acetyl-2-pyrrolidinyl)-1H-imidazol-5-yl)-4-biphenylyl)-1H-imidazol-2-yl)-1-pyrrolidinyl)-2-oxo-1-phenylethyl) piperidine] | 0.001 to 0.999
3 | O=C(Cc1cccs1)N1CCC[C@H]1c1ncc(-c2ccc(-c3ccc(-c4cnc([C@@H]5CCCN5C(=O)[C@@H](c5ccccc5)N5CCCCC5)[nH]4)cc3)cc2)[nH]1 [Example 107-30, 1-((1R)-2-oxo-1-phenyl-2-((2S)-2-(5-(4′-(2-((2S)-1-(2-thienylacetyl)-2-pyrrolidinyl)-1H-imidazol-5-yl)-4-biphenylyl)-1H-imidazol-2-yl)-1-pyrrolidinyl)ethyl)piperidine] | 0.001 to 0.999
4 | CN(C)[C@@H](C(=O)N1CCC[C@H]1c1ncc(-c2ccc(-c3ccc(-c4cnc([C@@H]5CCCN5C(=O)[C@@H](c5ccccc5F)N(C)C)[nH]4)cc3)cc2)[nH]1)c1ccccc1 [Example 107-31, (1R)-2-((2S)-2-(5-(4′-(2-((2S)-1-((2R)-2-(dimethylamino)-2-(2-fluorophenyl)acetyl)-2-pyrrolidinyl)-1H-imidazol-5-yl)-4-biphenylyl)-1H-imidazol-2-yl)-1-pyrrolidinyl)-N,N-dimethyl-2-oxo-1-phenylethanamine] | 0.001 to 0.999
5 | CO[C@@H](C(=O)N1CCC[C@H]1c1ncc(-c2ccc(-c3ccc(-c4cnc([C@@H]5CCCN5C(=O)[C@@H](c5ccccc5F)N(C)C)[nH]4)cc3)cc2)[nH]1)c1ccccc1 [Example 107-32, (1R)-1-(2-fluorophenyl)-2-((2S)-2-(5-(4′-(2-((2S)-1-((2R)-2-methoxy-2-phenylacetyl)-2-pyrrolidinyl)-1H-imidazol-5-yl)-4-biphenylyl)-1H-imidazol-2-yl)-1-pyrrolidinyl)-N,N-dimethyl-2-oxoethanamine] | 0.001 to 0.999
6 | CN(C)[C@@H](C(=O)N1CCC[C@H]1c1ncc(-c2ccc(-c3ccc(-c4cnc([C@@H]5CCCN5C(=O)C5(c6ccccc6)CC5)[nH]4)cc3)cc2)[nH]1)c1ccccc1F [Example 107-34, (1R)-1-(2-fluorophenyl)-N,N-dimethyl-2-oxo-2-((2S)-2-(5-(4′-(2-((2S)-1-((1-phenylcyclopropyl)carbonyl)-2-pyr-rolidinyl)-1H-imidazol-5-yl)-4-biphenylyl)-1H-imidazol-2-yl)-1-pyrrolidinyl)ethanamine] | 0.001 to 0.999
7 | CN(C)[C@@H](C(=O)N1CCC[C@H]1c1ncc(-c2ccc(-c3ccc(-c4cnc([C@@H]5CCCN5C(=O)[C@@H](c5ccccc5Cl)N(C)C)[nH]4)cc3)cc2)[nH]1)c1ccccc1 [Example 107-35, (1R)-1-(2-chloro-phenyl)-2-((2S)-2-(5-(4′-(2-((2S)-1-((2R)-2-(dimethylamino)-2-phenylacetyl)-2-pyrrolidinyl)-1H-imidazol-5-yl)-4-biphenylyl)-1H-imidazol-2-yl)-1-pyrrolidinyl)-N,N-dimethyl-2-oxoethanamine] | 0.001 to 0.999
8 | COC(=O)N[C@@H](C(=O)N1CCC[C@H]1c1ncc(-c2ccc(-c3ccc(-c4cnc([C@@H]5CCCN5C(=O)[C@@H](c5ccccc5Cl)N(C)C)[nH]4)cc3)cc2)[nH]1)c1ccccc1 [Example 107-36, methyl ((1R)-2-((2S)-2-(5-(4′-(2-((2S)-1-(2R)-2-(2-chlorophenyl)-2-(dimethylamino)acetyl)-2-pyrrolidinyl)-1H-imidazol-5-yl)-4-biphenylyl)-1H-imidazol-2-yl)-1-pyrrolidinyl)-2-oxo-1-phenylethyl) carbamate] | 0.001 to 0.999
9 | CO[C@@H](C(=O)N1CCC[C@H]1c1ncc(-c2ccc(-c3ccc(-c4cnc([C@@H]5CCCN5C(=O)[C@@H](c5ccccc5Cl)N(C)C)[nH]4)cc3)cc2)[nH]1)c1ccccc1 [Example 107-37, (1R)-1-(2-chlorophenyl)-2-((2S)-2-(5-(4′-(2-((2S)-1-((2R)-2-methoxy-2-phenylacetyl)-2-pyrrolidinyl)-1H-imidazol-5-yl)-4-biphenylyl)-1H-imidazol-2-yl)-1-pyrrolidinyl)-N,N-dimethyl-2-oxoethanamine] | 0.001 to 0.999
10 | CN(C)[C@@H](C(=O)N1CCC[C@H]1c1ncc(-c2ccc(-c3ccc(-c4cnc([C@@H]5CCCN5C(=O)[C@H]5CCCO5)[nH]4)cc3)cc2)[nH]1)c1ccccc1Cl [Example 107-38, (1R)-1-(2-chloro-phenyl)-N,N-dimethyl-2-oxo-2-((2S)-2-(5-(4′-(2-((2S)-1-((2R)-tetrahydro-2-furanylcarbonyl)-2-pyrrolidinyl)-1H-imidazol-5-yl)-4-biphenylyl)-1H-imidazol-2-yl)-1-pyrrolidinyl) ethanamine] | 0.001 to 0.999
11 | COC(=O)N[C@@H](C(=O)N1CCC[C@H]1c1ncc(-c2ccc(-c3ccc(-c4cnc([C@@H]5CCCN5C(=O)[C@H]5CCCO5)[nH]4)cc3)cc2)[nH]1)c1ccccc1Cl [Example 107-39, methyl ((1R)-1-(2-chlorophenyl)-2-oxo-2-((2S)-2-(5-(4′-(2-((2S)-1-((2R)-tetrahydro-2-furanylcarbonyl)-2-pyrrolidinyl)-1H-imidazol-5-yl)-4-biphenylyl)-1H-imidazol-2-yl)-1-pyrrolidinyl)ethyl) carbamate] | 0.001 to 0.999
12 | COC(=O)N[C@@H](C(=O)N1CCC[C@H]1c1ncc(-c2ccc(-c3ccc(-c4cnc([C@@H]5CCCN5C(=O)[C@@H](c5ccccc5)N(C)C)[nH]4)cc3)cc2)[nH]1)c1ccccc1Cl [Example 107-40, methyl ((1R)-1-(2-chlorophenyl)-2-((2S)-2-(5-(4′-(2-((2S)-1-((2R)-2-(dimethylamino)-2-phenylacetyl)-2-pyrrolidinyl)-1H-imidazol-5-yl)-4-biphenylyl)-1H-imidazol-2-yl)-1-pyrrolidinyl)-2-oxoethyl) carbamate] | 0.001 to 0.999
13 | COC(=O)N[C@@H](C(=O)N1CCC[C@H]1c1ncc(-c2ccc(-c3ccc(-c4cnc([C@@H]5CCCN5C(=O)[C@H](NC(=O)OC)c5ccccc5Cl)[nH]4)cc3)cc2)[nH]1)c1ccccc1 [Example 107-41, methyl ((1R)-2-((2S)-2-(5-(4′-(2-((2S)-1-((2R)-2-(2-chlorophenyl)-2-((methoxy-carbonyl)amino)acetyl)-2-pyrrolidinyl)-1H-imidazol-5-yl)-4-biphenylyl)-1H-imidazol-2-yl)-1-pyrrolidinyl)-2-oxo-1-phenylethyl) carbamate] | 0.001 to 0.999
14 | COC(=O)N[C@@H](C(=O)N1CCC[C@H]1c1ncc(-c2ccc(-c3ccc(-c4cnc([C@@H]5CCCN5C(=O)[C@@H](c5ccccc5)N5CCC(C)(O)CC5)[nH]4)cc3)cc2)[nH]1)c1ccccc1Cl [Example 107-42, methyl ((1R)-1-(2-chlorophenyl)-2-((2S)-2-(5-(4′-(2-((2S)-1-((2R)-2-(4-hydroxy-4-methyl-1-piperidinyl)-2-phenylacetyl)-2-pyrrolidinyl)-1H-imidazol-5-yl)-4-biphenylyl)-1H-imidazol-2-yl)-1-pyrrolidinyl)-2-oxoethyl) carbamate] | 0.001 to 0.999
